From ChEMBL document CHEMBL1697781, “Assessment of the health effects of chemicals in humans: II. Construction of an adverse effects database for QSAR modeling” (Curr Drug Discov Technol, 2004)

Key:
Conditions in all cases: human; call rule not given here
Hepatotoxicity [1] = assay: FDA HLAED, alkaline phosphatase increase
Hepatotoxicity [2] = assay: FDA HLAED, serum glutamic pyruvic transaminase (SGPT) increase
Hepatotoxicity [3] = assay: FDA HLAED, gamma-glutamyl transferase (GGT) increase
Hepatotoxicity [4] = assay: FDA HLAED, lactate dehydrogenase (LDH) increase
Hepatotoxicity [5] = assay: FDA HLAED, liver enzyme composite activity
Hepatotoxicity [6] = assay: FDA HLAED, serum glutamic oxaloacetic transaminase (SGOT) increase
Wherever GGT Increase - Index Value is given: reference of the scale not given here.
Wherever LDH Increase - Index Value is given: reference of the scale not given here.

| SMILES | Alkaline Phosphatase Increase - Activity Score (Hepatotoxicity [1]) | Alkaline Phosphatase Increase - Index Value (Hepatotoxicity [1]) | Alkaline Phosphatase Increase - Number of Reports (Hepatotoxicity [1]) | SGPT Increase - Activity Score (Hepatotoxicity [2]) | SGPT Increase - Index Value (Hepatotoxicity [2]) | SGPT Increase - Number of Reports (Hepatotoxicity [2]) | GGT Increase - Activity Score (Hepatotoxicity [3]) | GGT Increase - Index Value (Hepatotoxicity [3]) | GGT Increase - Number of Reports (Hepatotoxicity [3]) | LDH Increase - Activity Score (Hepatotoxicity [4]) | LDH Increase - Index Value (Hepatotoxicity [4]) | LDH Increase - Number of Reports (Hepatotoxicity [4]) | Composite Activity - Active (Hepatotoxicity [5]) | Composite Activity - Marginal (Hepatotoxicity [5]) | Composite Activity - Score (Hepatotoxicity [5]) | SGOT Increase - Activity Score (Hepatotoxicity [6]) | SGOT Increase - Index Value (Hepatotoxicity [6]) | SGOT Increase - Number of Reports (Hepatotoxicity [6]) | also measured |
| --- | --- | --- | --- | --- | --- | --- | --- | --- | --- | --- | --- | --- | --- | --- | --- | --- | --- | --- | --- |
| C[C@]12CC[C@@H]3c4ccc(O)cc4CC[C@H]3[C@@H]1CC[C@@H]2O [ESTRADIOL] | Inactive | 1.5 | >= 4 | Inactive | 2.1 | >= 4 | Inactive | 0.3 | < 4 | Inactive | 1.2 | >= 4 | 0 | 0 | Inactive | Inactive | 2.8 | >= 4 | – |
| C[C@]12CC[C@@H]3c4ccc(OC(=O)N(CCCl)CCCl)cc4CC[C@H]3[C@@H]1CC[C@@H]2O [ESTRAMUSTINE] | Active | 43.7 | < 4 | Inactive | 0 | < 4 | Inactive | 0 | < 4 | Inactive | 0 | < 4 | 1 | 0 | Inactive | Inactive | 0 | < 4 | – |
| CCc1cccc2c3c([nH]c12)C(CC)(CC(=O)O)OCC3 (configuration not stated) [ETODOLAC] | Inactive | 0.8 | >= 4 | Inactive | 1.4 | >= 4 | Inactive | 0.8 | >= 4 | Inactive | 0.6 | >= 4 | 0 | 0 | Inactive | Inactive | 1.1 | >= 4 | – |
| CCOC(=O)c1cncn1[C@H](C)c1ccccc1 [ETOMIDATE] | Inactive | 0 | < 4 | Inactive | 0 | < 4 | Inactive | 0 | < 4 | Inactive | 0 | < 4 | 0 | 0 | Inactive | Inactive | 0 | < 4 | – |
| COc1cc([C@@H]2c3cc4c(cc3[C@@H](O[C@@H]3O[C@@H]5CO[C@@H](C)O[C@H]5[C@H](O)[C@H]3O)[C@H]3COC(=O)[C@H]23)OCO4)cc(OC)c1O [ETOPOSIDE] | Inactive | 0.8 | < 4 | Inactive | 0 | < 4 | Inactive | 0 | < 4 | Inactive | 0.4 | < 4 | – | – | – | Inactive | 0.4 | < 4 | Composite Activity - Active (Hepatotoxicity [5]; Liver): 0; Composite Activity - Marginal (Hepatotoxicity [5]; Liver): 0; Composite Activity - Score (Hepatotoxicity [5]; Liver): Inactive |
| CCOC(=O)/C=C(C)/C=C/C=C(C)/C=C/c1c(C)cc(OC)c(C)c1C [ETRETINATE] | Active | 5.3 | >= 4 | Marginally Active | 3.2 | >= 4 | Inactive | 0.6 | < 4 | Inactive | 2.9 | >= 4 | 2 | 1 | Active | Active | 5.3 | >= 4 | – |
| CC(=O)OCC(CCn1cnc2cnc(N)nc21)COC(C)=O [FAMCICLOVIR] | Inactive | 0 | < 4 | Inactive | 0 | < 4 | Inactive | 0 | < 4 | Inactive | 0 | < 4 | 0 | 0 | Inactive | Inactive | 0 | < 4 | – |
| NC(N)=Nc1nc(CSCCC(N)=NS(N)(=O)=O)cs1 [FAMOTIDINE] | Inactive | 0.8 | >= 4 | Inactive | 0.7 | >= 4 | Inactive | 0.4 | >= 4 | Inactive | 0.4 | >= 4 | – | – | – | Inactive | 0.8 | >= 4 | Composite Activity - Active (Hepatotoxicity [5]; Liver): 0; Composite Activity - Marginal (Hepatotoxicity [5]; Liver): 0; Composite Activity - Score (Hepatotoxicity [5]; Liver): Inactive |
| NC(=O)OCC(COC(N)=O)c1ccccc1 [FELBAMATE] | Active | 15 | >= 4 | Active | 11.7 | >= 4 | Active | 15.8 | >= 4 | Active | 8.3 | >= 4 | 5 | 0 | Active | Active | 11.7 | >= 4 | – |
